Measured values taken from US20040235083A1, “Screening method” (priority 2001, published 2004).

Experiments:
[1] = tested on: osteoblastic cell line MC3T3-E1; experiment: Alkaline phosphatase activity in MC3T3-E1 after introduction of antisense or sense DNA to NQO2 mRNA; assay type: cell-based, mouse; details: MC3T3-E1, S-oligo DNA with FuGene 6, four days incubation, corrected for protein
Method: The alkaline phosphatase activity is represented by a relative activity (%) by taking a control value (with no DNA) as 100.
The mouse osteoblastic cell line, MC3T3-E1, in a MEMα medium containing 10% fetal calf serum and 100 μg/ml of kanamycin was inoculated on a 48-well plate at 1.4×10^4 cells per well and cultured overnight. To 100 μl of a serum-free αMEM were added 3 μl of FuGene 6 (Roche), 1.5 μg of the S-oligo DNA having the sequence of SEQ ID NO: 7 (antisense sequence to mouse NQO2 mRNA) and 1.5 μg of the S-oligo DNA having the sequence of SEQ ID NO: 8 (sense sequence to the mRNA) and the mixture was allowed to stand at room temperature for 15 minutes. To each well was added 22 μl of the mixture and incubated under 5% CO2 at 37° C. overnight. Thereafter, ascorbic acid was added at a final concentration of 50 μg/ml, and 10 mM of β-glycerophosphate was added. Incubation was performed for four days, and the activity of the alkaline phosphatase was measured according to Notoya et al. (Journal of Bone and Mineral Research 9: 395-400, 1994). The concentration of the protein in each cell homogenate was measured, and the activity values were corrected and shown in FIG. 1 by taking the activity obtained by the same procedure without addition of the DNA as 100%.

[2] = biological target: T1, NQO2 (Mus musculus, UniProt Q9JI75); experiment: Effect of compound on NQO2 activity (reduction of methyl red by GST-NQO2 fusion protein, absorbance at 436 nm); assay type: biochemical; details: 1 μM compound; 10 nM fusion protein, 30 μM methyl red, 25° C., pH 7.4; read-out: inhibitory action on NQO2 activity
T1 construct: made in house; host or cells: E. coli DH5α carrying pGEX-4T-2 with the insert
T1 sequence (Q9JI75 1-231): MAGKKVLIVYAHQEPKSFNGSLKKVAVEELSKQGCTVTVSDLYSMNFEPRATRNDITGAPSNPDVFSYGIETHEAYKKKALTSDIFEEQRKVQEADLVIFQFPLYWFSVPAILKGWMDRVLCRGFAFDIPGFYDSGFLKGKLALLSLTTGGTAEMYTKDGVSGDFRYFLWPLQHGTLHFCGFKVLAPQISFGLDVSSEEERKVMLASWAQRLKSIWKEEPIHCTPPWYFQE
Method: Entire RNA was prepared from a mouse osteoblastic cell line, MC3T3-E1, and cDNA was synthesized by using the oligo-dT primer. PCR was performed by using the cDNA as a template and two synthetic DNAs having the nucleotide sequences of SEQ ID NO: 5 and SEQ ID NO: 6, respectively, as primers to add the sequences recognized-by restriction enzymes. The resulting DNA fragment was cleaved with restriction enzymes BamHI and SalI and inserted into the BamHI-SalI cleavage site of plasmid pGEX-4T-2 (Amersham Pharmacia Biotech). The nucleotide sequence was confirmed, and then E. coli DH5α (GIBCO BRL) carrying the plasmid was cultured in an LB medium. According to the protocol recommended by Amersham Pharmacia Biotech, expression was induced by IPTG, and then purification was performed by using Glutathione-Sepharose (Amersham Pharmacia Biotech). From 2 L of the LB medium, 3.0 mg of the fusion protein was obtained.
Compound A having an osteogenesis-promoting action was examined for effects on the NQO2 activity by using the fusion protein obtained in the above (1). […] The decrease in absorbance at 436 nm was monitored to detect the reduction of methyl red. […]

[3] = tested on: osteoblasts; experiment: Alkaline phosphatase induction in the test using osteoblasts; assay type: cell-based; details: concentration of 1 μM

Row | inhibition at 1 µM [2] | alkaline phosphatase-inducing action [3] | Molecule | alkaline phosphatase activity relative to cells without introduction of DNA (100%) [1]
1 |  |  | antisense DNA: S-oligo DNA having the sequence of SEQ ID NO: 7 (antisense sequence to mouse NQO2 mRNA) (antisense CTGCCATGTTGGAGGAGATA; DNA, all phosphorothioate, methylation of C not given here) | significantly higher
2 |  |  | sense sequence DNA: S-oligo DNA having the sequence of SEQ ID NO: 8 (sense sequence to the mRNA) (sense TATCTCCTCCAACATGGCAG; DNA, all phosphorothioate, methylation of C not given here) [reference compound] | no difference was observed
3 | 38% | alkaline phosphatase-inducing action | O=C1NC(=O)C(Cc2ccc(NC(=O)C3=CC(=O)C4C(O)=CC=CC4O3)cc2)S1 (stereo not shown) [Compound A] | 
